# Measurements as given in ChEMBL document CHEMBL4334471, “Discovery of 1,8-disubstituted-[1,2,3]triazolo[4,5-c]quinoline derivatives as a new class of Hippo signaling pathway inhibitors” (Bioorg Med Chem Lett, 2019).
# How the values were obtained:
# [1] = target: Mitogen-activated protein kinase kinase kinase 20 (Homo sapiens) (UniProt Q9NYL2); assay: Inhibition of recombinant full-length human ZAK assessed as residual activity at 10 uM using MBP as substrate incubated for 40 mins in presence of [gamma33P]ATP by scintillation counting based radiometry assay relative to control
# [2] = tested on: Serine/threonine-protein kinase Nek4 (Homo sapiens), P51957 [P225A]; assay: Inhibition of recombinant full-length human NEK4 P225A mutant assessed as residual activity at 10 uM using myelin basic protein as substrate measured after 40 mins in presence of [gamma33P]ATP by scintillation counting based radiometry assay relative to control
# Chain of Serine/threonine-protein kinase Nek4 (Homo sapiens), P51957 [P225A] (P51957 whole entry P225A): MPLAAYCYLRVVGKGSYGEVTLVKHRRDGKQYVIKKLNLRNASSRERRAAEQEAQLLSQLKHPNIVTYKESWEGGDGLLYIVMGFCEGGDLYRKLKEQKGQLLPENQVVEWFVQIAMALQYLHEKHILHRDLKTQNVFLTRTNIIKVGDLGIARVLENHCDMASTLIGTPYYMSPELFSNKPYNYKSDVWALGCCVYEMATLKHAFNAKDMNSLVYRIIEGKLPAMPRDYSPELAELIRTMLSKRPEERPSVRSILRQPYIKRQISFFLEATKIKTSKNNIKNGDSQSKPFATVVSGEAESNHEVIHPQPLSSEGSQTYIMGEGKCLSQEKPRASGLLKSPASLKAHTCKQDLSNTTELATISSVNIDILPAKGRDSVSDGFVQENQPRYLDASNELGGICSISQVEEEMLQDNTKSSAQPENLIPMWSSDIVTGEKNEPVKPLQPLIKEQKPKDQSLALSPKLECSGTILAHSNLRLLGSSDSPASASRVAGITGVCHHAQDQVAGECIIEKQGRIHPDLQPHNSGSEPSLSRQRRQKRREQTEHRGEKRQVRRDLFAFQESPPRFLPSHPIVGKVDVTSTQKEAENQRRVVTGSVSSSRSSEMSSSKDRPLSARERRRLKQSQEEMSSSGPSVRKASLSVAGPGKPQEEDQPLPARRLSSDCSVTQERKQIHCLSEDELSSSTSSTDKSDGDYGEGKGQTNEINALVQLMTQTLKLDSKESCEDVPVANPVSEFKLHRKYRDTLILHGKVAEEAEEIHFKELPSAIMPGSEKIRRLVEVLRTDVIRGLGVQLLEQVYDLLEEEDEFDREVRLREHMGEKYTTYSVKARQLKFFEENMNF
# [3] = target: Cyclin-dependent kinase 13/Cyclin-K (Homo sapiens) (UniProt Q14004+O75909); assay: Inhibition of recombinant full length human CDK13/cyclinK assessed as residual activity at 10 uM using RSRSRSRSRSRSR as substrate incubated for 40 mins in presence of [gamma-33ATP] by scintillation counting based radiometry assay relative to control; format: protein-complex assay
# [4] = target: Serine/threonine-protein kinase PAK 4 (Homo sapiens) (UniProt O96013); assay: Inhibition of recombinant human PAK4 (295 to end residues) assessed as residual activity at 10 uM using myelin basic protein as substrate measured after 40 mins in presence of [gamma33P]ATP by scintillation counting based radiometry assay relative to control
# Chain of Serine/threonine-protein kinase PAK 4 (Homo sapiens) (O96013 whole entry, looked up): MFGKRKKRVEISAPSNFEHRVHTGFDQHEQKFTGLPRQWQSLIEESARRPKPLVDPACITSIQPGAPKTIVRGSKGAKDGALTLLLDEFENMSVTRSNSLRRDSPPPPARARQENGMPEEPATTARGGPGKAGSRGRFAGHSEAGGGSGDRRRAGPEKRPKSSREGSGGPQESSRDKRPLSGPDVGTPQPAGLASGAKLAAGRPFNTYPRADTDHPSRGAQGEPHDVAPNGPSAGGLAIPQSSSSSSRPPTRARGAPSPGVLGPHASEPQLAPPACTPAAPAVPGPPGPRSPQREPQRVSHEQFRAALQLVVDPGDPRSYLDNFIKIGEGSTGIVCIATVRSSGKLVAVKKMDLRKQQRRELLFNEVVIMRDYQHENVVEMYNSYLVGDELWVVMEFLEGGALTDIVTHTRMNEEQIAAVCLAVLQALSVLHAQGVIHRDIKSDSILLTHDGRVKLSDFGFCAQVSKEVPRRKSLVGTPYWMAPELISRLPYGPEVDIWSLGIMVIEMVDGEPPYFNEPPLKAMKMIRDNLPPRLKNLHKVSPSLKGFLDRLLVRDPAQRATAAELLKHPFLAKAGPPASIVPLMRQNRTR
# [5] = target: Protein kinase C beta type (Homo sapiens) (UniProt P05771); assay: Inhibition of recombinant human PKCbeta1 (2 to end residues) assessed as residual activity at 10 uM using histone H1 as substrate incubated for 40 mins in presence of [gamma33P]ATP by scintillation counting based radiometry assay relative to control
# Chain of Protein kinase C beta type (Homo sapiens) (P05771 2-671 limits assumed): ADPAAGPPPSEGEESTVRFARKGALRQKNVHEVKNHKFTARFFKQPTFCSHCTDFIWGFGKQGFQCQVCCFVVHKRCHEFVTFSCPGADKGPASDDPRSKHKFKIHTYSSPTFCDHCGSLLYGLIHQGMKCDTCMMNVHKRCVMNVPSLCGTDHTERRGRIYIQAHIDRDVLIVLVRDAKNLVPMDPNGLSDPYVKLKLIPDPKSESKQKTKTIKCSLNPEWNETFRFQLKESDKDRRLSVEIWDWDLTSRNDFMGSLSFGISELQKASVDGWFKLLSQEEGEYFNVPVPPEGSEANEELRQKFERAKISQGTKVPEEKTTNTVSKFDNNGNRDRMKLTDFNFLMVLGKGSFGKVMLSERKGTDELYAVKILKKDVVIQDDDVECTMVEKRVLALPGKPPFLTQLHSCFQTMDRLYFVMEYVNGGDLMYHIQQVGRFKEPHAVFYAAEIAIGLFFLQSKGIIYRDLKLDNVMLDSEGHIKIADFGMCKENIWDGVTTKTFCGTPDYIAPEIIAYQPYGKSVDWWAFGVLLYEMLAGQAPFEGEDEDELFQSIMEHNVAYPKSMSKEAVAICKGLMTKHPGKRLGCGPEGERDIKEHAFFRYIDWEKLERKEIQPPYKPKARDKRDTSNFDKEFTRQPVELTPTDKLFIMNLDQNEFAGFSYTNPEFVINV
# [6] = target: Serine/threonine-protein kinase N2 (Homo sapiens) (UniProt Q16513); assay: Inhibition of recombinant human PRK2 (501 to end residues) assessed as residual activity at 10 uM using AKRRRLSSLRA as substrate incubated for 40 mins in presence of [gamma33P]ATP by scintillation counting based radiometry assay relative to control
# [7] = target: Phosphatidylinositol 4-phosphate 3-kinase C2 domain-containing subunit alpha (Homo sapiens) (UniProt O00443); assay: Inhibition of recombinant human PI3KC2alpha (299 to end residues) assessed as residual activity at 10 uM using phosphatidylinositol as substrate incubated for 40 mins in presence of [gamma33P]ATP by scintillation counting based radiometry assay relative to control
# [8] = target: Tyrosine-protein kinase ZAP-70 (Homo sapiens) (UniProt P43403); assay: Inhibition of recombinant full length human ZAP70 assessed as residual activity at 10 uM using poly(Glu, Tyr) 4:1 as substrate incubated for 40 mins in presence of [gamma33P]ATP by scintillation counting based radiometry assay relative to control
# [9] = target: Serine/threonine-protein kinase Nek6 (Homo sapiens) (UniProt Q9HC98); assay: Inhibition of recombinant human NEK6 (2 to end residues) assessed as residual activity at 10 uM using FLAKSFGSPNRAYKK as substrate measured after 40 mins in presence of [gamma33P]ATP by scintillation counting based radiometry assay relative to control
# Chain of Serine/threonine-protein kinase Nek6 (Homo sapiens) (Q9HC98 whole entry): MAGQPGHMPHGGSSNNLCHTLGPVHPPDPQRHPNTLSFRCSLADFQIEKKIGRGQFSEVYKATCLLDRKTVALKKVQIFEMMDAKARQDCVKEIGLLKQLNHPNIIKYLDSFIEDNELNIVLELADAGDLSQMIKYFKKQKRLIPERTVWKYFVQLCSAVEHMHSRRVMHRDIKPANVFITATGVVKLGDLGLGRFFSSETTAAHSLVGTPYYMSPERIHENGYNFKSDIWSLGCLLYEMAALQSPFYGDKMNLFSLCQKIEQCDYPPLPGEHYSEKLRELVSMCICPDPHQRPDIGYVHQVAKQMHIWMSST
# [10] = target: Ribosomal protein S6 kinase alpha-4 (Homo sapiens) (UniProt O75676); assay: Inhibition of recombinant human MSK2 (2 to end residues) assessed as residual activity at 10 uM using GRPRTSSFAEGKK as substrate incubated for 40 mins in presence of [gamma-33ATP by scintillation counting based radiometry assay relative to control
# [11] = tested on: PI3-kinase p110-alpha/p85-alpha (Homo sapiens), P27986+P42336 [E542K]; assay: Inhibition of recombinant full-length human PI3K p110/p85 E542K mutant assessed as residual activity at 10 uM using phosphatidylinositol-4, 5-bisphosphate as substrate incubated for 40 mins in presence of [gamma33P]ATP by scintillation counting based radiometry assay relative to control
# [12] = target: Homeodomain-interacting protein kinase 4 (Homo sapiens) (UniProt Q8NE63); assay: Inhibition of human HIPK4 assessed as residual activity at 10 uM using RRRFRPASPLRGPPK as substrate after 40 mins by [gamma-33ATP] radiometric assay relative to control
# [13] = target: Tribbles homolog 2 (Homo sapiens) (UniProt Q92519); assay: Inhibition of recombinant full-length human TRB2 assessed as residual activity at 10 uM using RRRFRPASPLRGPPK as substrate incubated for 120 mins in presence of [gamma33P]ATP by scintillation counting based radiometry assay relative to control
# Chain of Tribbles homolog 2 (Homo sapiens) (Q92519 whole entry): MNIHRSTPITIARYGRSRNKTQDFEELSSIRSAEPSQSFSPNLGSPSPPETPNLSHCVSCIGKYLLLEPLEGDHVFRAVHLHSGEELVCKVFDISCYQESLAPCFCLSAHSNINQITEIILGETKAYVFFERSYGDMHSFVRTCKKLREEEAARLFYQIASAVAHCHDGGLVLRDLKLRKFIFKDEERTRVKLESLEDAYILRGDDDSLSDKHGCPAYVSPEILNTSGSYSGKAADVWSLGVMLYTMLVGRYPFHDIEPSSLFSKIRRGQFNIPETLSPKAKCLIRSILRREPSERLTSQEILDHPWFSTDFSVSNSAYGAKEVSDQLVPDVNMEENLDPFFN
# [14] = target: Platelet-derived growth factor receptor beta (Homo sapiens) (UniProt P09619); assay: Inhibition of human PDGFRbeta (557 to end residues) assessed as residual activity at 10 uM using poly(Glu, Tyr) 4:1 as substrate measured after 40 mins in presence of [gamma33P]ATP by scintillation counting based radiometry assay relative to control
# [15] = target: Serine/threonine-protein kinase SBK1 (Homo sapiens) (UniProt Q52WX2); assay: Inhibition of recombinant full-length human SBK1 assessed as residual activity at 10 uM using KKLRRTLSVA as substrate incubated for 120 mins in presence of [gamma33P]ATP by scintillation counting based radiometry assay relative to control
# Chain of Serine/threonine-protein kinase SBK1 (Homo sapiens) (Q52WX2 whole entry): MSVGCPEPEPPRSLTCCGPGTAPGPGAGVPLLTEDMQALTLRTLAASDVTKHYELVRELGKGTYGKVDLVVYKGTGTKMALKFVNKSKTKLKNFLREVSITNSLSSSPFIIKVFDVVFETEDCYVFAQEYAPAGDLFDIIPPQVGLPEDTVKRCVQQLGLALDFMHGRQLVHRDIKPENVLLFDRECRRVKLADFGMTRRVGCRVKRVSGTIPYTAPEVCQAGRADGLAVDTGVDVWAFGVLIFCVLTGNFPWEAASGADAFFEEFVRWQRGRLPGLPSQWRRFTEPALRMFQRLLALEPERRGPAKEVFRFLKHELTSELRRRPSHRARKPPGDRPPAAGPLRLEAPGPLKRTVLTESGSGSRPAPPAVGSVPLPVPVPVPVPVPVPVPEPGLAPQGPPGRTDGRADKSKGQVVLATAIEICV
# [16] = target: Mitogen-activated protein kinase 8 (Homo sapiens) (UniProt P45983); assay: Inhibition of human JNK1alpha1 assessed as residual activity at 10 uM using ATF2 as substrate after 40 mins by [gamma-33ATP] radiometric assay relative to control
# Chain of Mitogen-activated protein kinase 8 (Homo sapiens) (P45983 whole entry, the tested form may be a part): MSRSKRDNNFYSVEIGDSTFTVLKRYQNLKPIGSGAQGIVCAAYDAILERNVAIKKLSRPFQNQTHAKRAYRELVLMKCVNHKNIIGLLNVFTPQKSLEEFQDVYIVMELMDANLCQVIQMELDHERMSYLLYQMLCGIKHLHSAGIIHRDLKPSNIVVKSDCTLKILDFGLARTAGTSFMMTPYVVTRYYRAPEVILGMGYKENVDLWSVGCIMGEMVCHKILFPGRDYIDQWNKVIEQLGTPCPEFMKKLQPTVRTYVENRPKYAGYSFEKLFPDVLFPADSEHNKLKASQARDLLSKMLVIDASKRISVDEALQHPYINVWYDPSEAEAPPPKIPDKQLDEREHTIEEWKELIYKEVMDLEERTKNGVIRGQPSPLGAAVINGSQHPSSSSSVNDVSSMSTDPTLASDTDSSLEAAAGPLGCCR
# [17] = target: Myosin-IIIb (Homo sapiens) (UniProt Q8WXR4); assay: Inhibition of recombinant human MYO3B (1 to 306 residues) assessed as residual activity at 10 uM using RLGRDKYKTLRQI as substrate measured after 40 mins in presence of [gamma33P]ATP by scintillation counting based radiometry assay relative to control
# Chain of Myosin-IIIb (Homo sapiens) (Q8WXR4 whole entry, the tested form may be a part): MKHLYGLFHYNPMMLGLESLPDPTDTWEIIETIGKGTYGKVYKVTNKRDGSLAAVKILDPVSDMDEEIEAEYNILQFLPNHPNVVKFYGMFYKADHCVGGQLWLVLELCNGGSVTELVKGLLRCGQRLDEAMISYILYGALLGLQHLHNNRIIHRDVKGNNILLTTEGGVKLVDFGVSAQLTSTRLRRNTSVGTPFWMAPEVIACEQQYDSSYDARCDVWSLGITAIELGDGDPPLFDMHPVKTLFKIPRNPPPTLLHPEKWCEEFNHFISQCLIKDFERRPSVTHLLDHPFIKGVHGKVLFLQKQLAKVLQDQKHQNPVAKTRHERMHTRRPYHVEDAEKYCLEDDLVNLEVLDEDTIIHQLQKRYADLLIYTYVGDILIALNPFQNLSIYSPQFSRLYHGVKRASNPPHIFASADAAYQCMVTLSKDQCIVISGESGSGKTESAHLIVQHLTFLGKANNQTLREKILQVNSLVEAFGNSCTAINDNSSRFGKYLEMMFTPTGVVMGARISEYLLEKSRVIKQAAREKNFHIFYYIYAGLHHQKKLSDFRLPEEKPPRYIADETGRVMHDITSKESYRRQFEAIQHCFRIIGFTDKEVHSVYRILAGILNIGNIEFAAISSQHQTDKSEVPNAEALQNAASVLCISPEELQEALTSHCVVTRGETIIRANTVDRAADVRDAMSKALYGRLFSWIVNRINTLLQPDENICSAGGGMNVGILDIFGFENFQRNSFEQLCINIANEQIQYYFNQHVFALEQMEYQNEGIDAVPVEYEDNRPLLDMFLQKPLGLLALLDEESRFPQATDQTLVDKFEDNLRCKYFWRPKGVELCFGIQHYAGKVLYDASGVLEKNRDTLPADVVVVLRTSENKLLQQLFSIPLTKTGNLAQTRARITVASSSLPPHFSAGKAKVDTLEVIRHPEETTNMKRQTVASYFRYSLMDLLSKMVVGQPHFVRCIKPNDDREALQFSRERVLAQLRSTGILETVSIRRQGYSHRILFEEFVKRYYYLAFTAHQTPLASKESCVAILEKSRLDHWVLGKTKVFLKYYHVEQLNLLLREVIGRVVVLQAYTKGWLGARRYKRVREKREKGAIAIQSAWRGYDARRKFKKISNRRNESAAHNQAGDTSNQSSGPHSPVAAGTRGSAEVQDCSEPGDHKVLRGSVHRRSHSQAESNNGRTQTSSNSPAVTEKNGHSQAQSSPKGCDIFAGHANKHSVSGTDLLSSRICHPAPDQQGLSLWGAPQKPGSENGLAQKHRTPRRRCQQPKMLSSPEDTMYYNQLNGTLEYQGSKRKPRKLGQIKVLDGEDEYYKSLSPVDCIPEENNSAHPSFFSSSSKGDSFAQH
# [18] = target: Mitogen-activated protein kinase kinase kinase 2 (Homo sapiens) (UniProt Q9Y2U5); assay: Inhibition of recombinant full length human MEKK2 assessed as residual activity at 10 uM using myelin basic protein as substrate incubated for 40 mins in presence of [gamma-33ATP by scintillation counting based radiometry assay relative to control
# [19] = target: Fibroblast growth factor receptor 3 (Homo sapiens) (UniProt P22607); assay: Inhibition of recombinant human FGFR3 (447 to 761 residues) assessed as residual activity at 10 uM using poly(Glu, Tyr) 4:1 as substrate at 40 mins in presence of [gamma-33ATP] by scintillation counting based radiometry assay relative to control
# [20] = target: Serine/threonine-protein kinase STK11 (Homo sapiens) (UniProt Q15831); assay: Inhibition of recombinant human LKB1 assessed as residual activity at 10 uM using LSNLYHQGKFLQT as substrate after 40 mins in presence of [gamma-33ATP] by scintillation counting based radiometry assay relative to control
# [21] = target: STE20-like serine/threonine-protein kinase (Homo sapiens) (UniProt Q9H2G2); assay: Inhibition of recombinant human SLK (1 to 373 residues) assessed as residual activity at 10 uM using RLGRDKYKTLRQIRQ as substrate incubated for 40 mins in presence of [gamma33P]ATP by scintillation counting based radiometry assay relative to control
smiles,measurement,setting,value
C[C@@H](c1ccccc1)n1nnc2cnc3ccc(-c4cnc5[nH]ccc5c4)cc3c21,Activity,[1],8%
same,Activity,[2],20%
same,Activity,[3],84%
same,Activity,[4],88%
same,Activity,[5],110%
same,Activity,[6],89%
same,Activity,[7],-60 to 66%
same,Activity,[8],150%
same,Activity,[9],72%
same,Activity,[10],58%
same,Activity,[11],8%
same,Activity,[12],57%
same,Activity,[13],86%
same,Activity,[14],79%
same,Activity,[15],113%
same,Activity,[16],105%
same,Activity,[17],73%
same,Activity,[18],107%
same,Activity,[19],50%
same,Activity,[20],91%
same,Activity,[21],75%
